According to publication PMC9963373, “Rationalizing the Binding Modes of PET Radiotracers Targeting the Norepinephrine Transporter” (Pharmaceutics, 2023):

Key:
[1] = biological target: T1, NET (Homo sapiens, UniProt P23975); test: Competitive cellular uptake assay against [3H]NE uptake in SK-N-SH cells
From the text: It should be noted that the NET affinities of the tested compounds are expressed as IC50 in the current manuscript instead of the dissociation constant Kd. First, because all the tested compounds are substrates of NET that can be transported, they share the same binding site. […] Therefore, the IC50 value in the current study is considered equal to Kd without additional correction.
Competitive Cellular Uptake Studies
were cultivated according to the instructions from the supplier (Sigma-Aldrich Chemie GmbH,
Munich, Germany). One day before the competitive assay, the cells were seeded in 24-well plates
at a density of 1 × 10^5 cells/well and incubated in 0.5 mL of Eagle’s minimum essential medium
(EMEM) at 37 °C overnight. The medium was removed, and the cells were washed with 0.5 mL of
Dulbecco’s modified Eagle’s medium (DMEM) with low glucose containing 0.1% bovine serum
albumin (BSA). After washing, DMEM/0.1% BSA (300 µL) was added along with 50 µL of pargyline
presence of pyrogallol (20 µM final concentration, catechol-O-methyl transferase inhibitor) [1] and
pargyline (100 µM final concentration, monoamine oxidase inhibitor) [2], 50 µL of working solution
GBq/mmol, NET678250UC, PerkinElmer LAS GmbH, Germany) in DMEM/0.1% BSA together with
50 µL of the test compounds (desipramine, MIBG, HED and cold re ferences, each at different
incubation volume. The addition of the inhibitors of both enzymes involved in the natural
time. The plates were incubated at 37°C for 60 min. The cells were then washed with ice-cold PBS
(2 × 0.5 mL) followed by the addition of NaOH solution (0.1 N, 500 μL) and collection of the cell
lysates. Cell lysates (140 µL) were mixed with 1.8 mL of scintillation cocktail (Hionic-Fluor,
PerkinElmer, Rodgau, Germany) and radioactivity was measured in a liquid scintillation analyzer
All experimental data are presented as mean
± SD, with individual numbers measured in triplicate in experiment performed on 2–3 separate

[2] = Rat biodistribution study, heart-to-blood ratio of fluorine-18-labeled tracers; format: in vivo; settings: male Wistar rats, 10 min after tail vein administration of fluorine-18-labeled tracer (1-2 MBq), n = 3-6
From the text: (§1) The experimental protocols were approved by the Animal Ethics Committee of the National Cerebral and Cardiovascular Center, Research Institute, Osaka, Japan (approval number 18019) and conducted in strict accordance with the Guide for the Care and Use of Laboratory Animals published by the US National Institutes of Health and the ARRIVE guidelines. Anesthesia was induced in male Wistar rats (n = 3–6 for each radiotracer, weighing 200–250 g on average, Charles River Laboratories, Research Models and Services, Germany GmbH, Sulzfeld, Germany) by using 5% isoflurane and maintained during the whole experiment with 2% isoflurane. Large animal PET imaging was performed on rhesus macaques (n = 2, weighing 3.9–4.2 kg, Primate Research Institute Kyoto University, Aichi, Japan). The induction of anesthesia in non-human primates (NHPs) was conducted by intramuscular injection of ketamine (1.5 mg/kg) and xylazine (0.6 mg/kg) to allow animal preparation and handling. After a tracheal cannula was inserted, 1.5% sevoflurane (SEVOFLURANE Inhalation Solution, Pfizer Japan Inc., Tokyo, Japan) vaporized with 100% oxygen was inhaled, and the tidal volume and respiratory rate of the ventilator were monitored and maintained in the normal range throughout the imaging sessions with an anesthesia workstation (Apollo®, Drägerwerk AG & Co. KGaA, Lübeck, Germany).
(§2) Preliminary PET imaging of [^18F]AF78(F) in rodents (n = 2) and NHPs (n = 2) was obtained according to a previously described protocol. For the rat biodistribution studies (n = 3–6 for each tracer), radiotracers (1–2 MBq) were administered via the tail vein. Ten minutes after radiotracer administration, the animals were euthanized. The organs of interest were harvested for tissue counting with a γ-counter (2480 Automatic Gamma Counter WIZARD^2, PerkinElmer LAS GmbH, Rodgau, Germany). Following weight and decay correction of the tissue counts, the heart-to-blood (H/B) ratios were calculated. A detailed experimental description can be found in the Supplementary Material. […]
PET Imaging and Biodistribution Study […]
Barbara, CA, US). For the rat biodistribution studies, radiotracers (1–2 MBq) were administered via the tail vein. Ten minutes after radiotracer administration, the animals were euthanized. The organs of interest were harvested for tissue counting with a γ-counter (2480 Automatic Gamma Counter WIZARD2, PerkinElmer, Rodgau, Germany). Following weight and decay correction of the tissue counts, the heart-to-blood ratios were calculated. NHPs (n = 2) were anesthetized during the imaging study and studied on a clinical PET scanner (PCA-2000A, Toshiba Medical Systems Corporation, Tochigi, Japan). After a 5 min transmission scan and an intravenous injection of the […]
and 300 s × 11) was started. […]

[3] = biological target: T1, NET; set-up: Human neuroblastoma cell line SK-N-SH from metastatic bone marrow stably expressing NET; host or cells: SK-N-SH human neuroblastoma cells; method as in PMID 23306137; settings: NE-NET; read-out: Michaelis constant Km; cited from earlier work
[4] = PET/CT imaging in healthy rats; format: in vivo; settings: n = 2, 10-20 MBq via tail vein
Procedure: as §2
days. IC50 values were determined using nonlinear regression log(inhibitor) vs. normalized response in GraphPad Prism 8.4.3.
PET Imaging and Biodistribution Study
PET imaging of [18F]AF78(F) in rodents (n = 2) was obtained using a dedicated small animal PET system (microPET Focus 120, Siemens, Germany). […]
initiated with acquisition in list-mode format. […] Following weight and decay correction of the tissue counts, the heart-to-blood ratios were calculated. […]
injected 10 min before tracer administration, after which the PET scan started immediately. […] The obtained PET images were analyzed with the public domain tool AMIDE imaging software (A Medical Imaging Data Examiner, version 1.01).

[5] = system: NET; test: PET imaging in non-human primates with and without desipramine blockade; format: in vivo, rhesus macaques; settings: NHPs, n = 2; specificity proven by desipramine 1 mg/kg i.v. 10 min before tracer
From the text: as §1, with “Large animal PET imaging was performed on rhesus macaques (n = 2, weighing 3.9–4.2 kg, Primate Research Institute Kyoto University, Aichi, Japan). The induction of anesthesia in non-human primates (NHPs) was conducted by intramuscular injection of ketamine (1.5 mg/kg) and xylazine (0.6 mg/kg) to allow animal preparation and handling.” left out
Preliminary PET imaging of [^18F]AF78(F) in rodents (n = 2) and NHPs (n = 2) was obtained according to a previously described protocol. […] Following weight and decay correction of the tissue counts, the heart-to-blood (H/B) ratios were calculated. […]

T1 sequence (P23975 whole entry): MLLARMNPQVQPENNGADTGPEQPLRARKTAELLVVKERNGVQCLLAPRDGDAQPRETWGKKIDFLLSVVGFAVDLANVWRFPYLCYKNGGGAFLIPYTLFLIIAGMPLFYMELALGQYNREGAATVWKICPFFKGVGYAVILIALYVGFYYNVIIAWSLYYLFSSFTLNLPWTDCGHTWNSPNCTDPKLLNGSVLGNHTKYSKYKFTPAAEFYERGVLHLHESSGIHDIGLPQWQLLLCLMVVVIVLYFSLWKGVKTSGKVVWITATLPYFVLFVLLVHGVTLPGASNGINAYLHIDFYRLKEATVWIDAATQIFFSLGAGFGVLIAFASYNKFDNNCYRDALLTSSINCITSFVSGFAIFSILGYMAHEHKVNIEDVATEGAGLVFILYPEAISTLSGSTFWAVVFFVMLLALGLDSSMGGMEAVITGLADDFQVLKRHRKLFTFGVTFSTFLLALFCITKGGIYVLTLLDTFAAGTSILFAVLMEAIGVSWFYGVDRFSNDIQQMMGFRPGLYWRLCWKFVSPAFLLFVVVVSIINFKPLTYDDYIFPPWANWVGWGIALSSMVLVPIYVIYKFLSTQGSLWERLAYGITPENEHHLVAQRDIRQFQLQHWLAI

**Q.** Which IC50 [1] does the source give for `N=C(N)NCCc1ccc(OCCCF)c(O)c1` [AF78(OH)] here?
**A.** The IC50 was 22.7 ± 3.58 µM.

**Q.** For `N=C(N)NCCc1ccc(OCCCF)c(Cl)c1` [AF78(Cl)], which IC50 [1] is on record?
**A.** Its IC50 is 0.94 ± 0.28 µM.

**Q.** And the “heart-to-blood (H/B) ratio” value [2]?
**A.** Its value is 10.4 ± 0.4.

**Q.** Which IC50 [1] does the source give for `N=C(N)NCCc1ccc(OCCCF)cc1` [AF78(H)] here?
**A.** The IC50 was 4.17 ± 0.92 µM.

**Q.** What does the source list for `N=C(N)NCCc1ccc(OCCCF)c(Br)c1` [AF78(Br)]?
**A.** IC50 [1]: 3.32 ± 0.72 µM; heart-to-blood (H/B) ratio [2]: 8.7 ± 1.4

**Q.** For `N=C(N)NCCc1ccc(OCCCF)c(I)c1` [AF78(I)], which IC50 [1] is on record?
**A.** The IC50 was 6.51 ± 3.32 µM.

**Q.** And the “fold less potent than AF78(F)” value ([1]; ratio of NET affinities in the competitive cellular uptake assay)?
**A.** Its value is 15 fold.

**Q.** And the “heart-to-blood (H/B) ratio” value [2]?
**A.** The value was 5.9 ± 0.4.

**Q.** Which Km [3] does the source give for `NC[C@H](O)c1ccc(O)c(O)c1` [NE, norepinephrine] here?
**A.** Its Km is 0.28 ± 0.03 µM.

**Q.** Which “systemic distribution of the radiotracer (PET/CT)” value [4] does the source give for `N=C(N)NCCc1ccc(OCCCF)c(F)c1` [AF78(F)] here?
**A.** Its value is “homogenous distribution throughout the left ventricular wall”.

**Q.** What about the “uptake in the heart (PET)” value [5] of the same molecule?
**A.** Its value is “distinct NET-mediated uptake in the heart”.

**Q.** What about the “heart-to-blood (H/B) ratio” value [2] of the same molecule?
**A.** Its value is 13.2 ± 1.2.
